# In BindingDB's records for patent US11084800 (Achillion Pharmaceuticals, 2021):
# Target: Complement factor D (Homo sapiens, UniProt P00746)
# Assay: Factor D Assay
# Experimental: Human Factor D (purified from human serum, Complement Technology, Inc.) at 80 nM final concentration is incubated with test compound at various concentrations for 5 min at room temperature in 50 mM Tris, 1M NaCl, pH 7.5. A synthetic substrate Z-L-Lys-SBz and DTNB (Ellman's reagent) are added to final concentrations of 100 μM each. Absorbance at 405 nm (A405) is recorded at 30 second intervals for 30 min using a microplate spectrophotometer. IC50 values are calculated by nonlinear regression of complement Factor D reaction rates as a function of test compound concentration.
# Sequence of Complement factor D (P00746 whole entry): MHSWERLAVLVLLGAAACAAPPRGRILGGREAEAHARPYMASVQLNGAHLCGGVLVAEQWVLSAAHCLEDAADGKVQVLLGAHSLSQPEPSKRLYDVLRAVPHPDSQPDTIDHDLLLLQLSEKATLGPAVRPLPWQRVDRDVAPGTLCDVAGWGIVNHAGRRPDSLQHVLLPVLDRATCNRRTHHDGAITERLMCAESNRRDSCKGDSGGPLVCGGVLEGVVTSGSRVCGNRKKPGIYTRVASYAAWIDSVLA
smiles,measurement,value
"CC(=O)c1nn(CC(=O)N2C[C@H]3C[C@H]3[C@H]2C(=O)N2C[C@H]3C[C@H]3C2C(=O)Nc2nc(Br)ccc2C)c2c(C)cc(-c3cnc(C)nc3)cc12 (stereo partly specified) [US11084800, Cpd No. 92]",IC50,in the range around 5.5 µM
